The values below come from patent publication US20120202837A1, “SPIROCYCLIC PIPERIDINE DERIVATIVES USEFUL AS RENIN INHIBITORS” (priority 2009, published 2012).

Test [1] concerns the target T1, Renin in human plasma (Homo sapiens, UniProt P00797).
T1 construct: purchased Proteos; host or cells: added to human EDTA-collected plasma
T1 sequence (P00797 67-406): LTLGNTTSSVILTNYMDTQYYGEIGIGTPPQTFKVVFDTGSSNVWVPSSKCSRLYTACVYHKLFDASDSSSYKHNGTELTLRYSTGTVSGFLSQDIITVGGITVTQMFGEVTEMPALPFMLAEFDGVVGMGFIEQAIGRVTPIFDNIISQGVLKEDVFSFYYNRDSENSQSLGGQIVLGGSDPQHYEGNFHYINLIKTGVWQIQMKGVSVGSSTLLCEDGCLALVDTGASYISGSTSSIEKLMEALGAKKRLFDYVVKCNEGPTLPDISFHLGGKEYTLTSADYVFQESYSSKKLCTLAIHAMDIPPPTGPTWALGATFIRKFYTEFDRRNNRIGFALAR
Description: Inhibition of renin in human plasma. The class given is biochemical. As to conditions: human EDTA plasma, recombinant renin added at 1 nM, 6 μM substrate, 37° C., 1 hour. On the procedure: Human EDTA-collected plasma is rapidly thawed in warm water and centrifuged at 2900 g for 15 minutes at 4° C. The supernatant is collected and recombinant renin (Proteos) is added at a final concentration of 1 nM. The plasma is transferred to a Costar black 384 well plate (#3573). Renin inhibitors are added from a 17.5 fold concentrated DMSO solution and pre-incubated at 37° C. for 10 minutes. The internally-quench fluorescent peptide QX1520™-Lys-His-Pro-Phe-His-Leu-Val-Ile-His-Lys (5-FAM) (Anaspec) is diluted in 3M Tris pH 7.2, 200 mM EDTA and added to the plasma. The final concentrations are: 6 μM substrate, 342 mM Tris, 23 mM EDTA. The plate is incubated at 37° C. for 1 hour. The plate is read in a SpectraMax Gemini EM reader set at an excitation wavelength of 490 nm and an emission wavelength of 520 nm at times 0 and 1 hour. Background fluorescence at t=0 is subtracted from the measurement at t=1 hour. Inhibitory activity of the compounds is expressed as IC50.

The target of test [2] is T2, Human recombinant renin (Homo sapiens, UniProt P00797).
T2 construct: purchased Proteos
T2 sequence (P00797 67-406): T1 sequence (P00797 67-406)
Description: Inhibition of human recombinant renin (buffer assay). The class given is biochemical. The conditions noted are these: buffer: 50 mM MOPS pH 7.4, 100 pM renin, 6 μM fluorescent peptide, 37° C., 3 hours. The procedure:
Human recombinant renin (Proteos) in 50 mM MOPS pH 7.4, 100 mM NaCl, 0.002% Tween 20 at a final concentration of 100 pM is incubated with inhibitors from a 50 fold concentrated DMSO solution and 6 μM of an internally-quench fluorescent peptide: DNP-Lys-His-Pro-Phe-His-Leu-Val-Ile-His-D,L-Amp (SEQ ID NO: 1); Paschalidou K. et al., Biochem J, 2004, 382, 1031). The reactions take place in a Costar 384 well black plate (#3573) at 37° C. for 3 hours. Fluorescence is measured at times 0 and 3 hours with a SpectraMax Gemini EM reader set at an excitation wavelength of 328 nm and at an emission wavelength of 388 nm. Background fluorescence at t=0 is subtracted from the measurement at t=3 hours. Inhibitory activity of the compounds is expressed as IC50.

SMILES strings stand for the structures.

One may read the IC50 as the midpoint of a concentration-inhibition curve.

As for `CC(=O)NCCc1ccccc1-c1ccc([C@@H]2CNCC[C@]23OCc2cc(F)c(F)cc23)c(C)c1` (racemic) [Example 4, rac-N-(2-{4′-[(1R,3′S)-5,6-Difluoro-3H-spiro[2-benzofuran-1,4′-piperidin]-3′-yl]-3′-methyl-2-biphenylyl}ethyl)acetamide], the IC50 in test [1] worked out at 1.4 nM; in test [2] it was 0.2 nM.

For `COCCCc1ccccc1-c1ccc([C@@H]2CNCC[C@]23OCc2cn(C)c(=O)cc23)c(C)c1` (racemic) [Example 5, rac-(1R,3′S)-3′-[2′-(3-Methoxypropyl)-3-methyl-4-biphenylyl]-5-methyl-3,5-dihydro-6H-spiro[furo[3,4-c]pyridine-1,4′-piperidin]-6-one], the IC50 in test [1] worked out at 18 nM; in test [2], 1.6 nM.

As for `Cc1cc(-c2ccccc2CCNC(=O)CO)ccc1[C@H]1CNCC[C@@]12OC(=O)c1cc(F)c(F)cc12` [Example 11, N-(2-{4′-[(1R,3′S)-5,6-Difluoro-3-oxo-3H-spiro[2-benzofuran-1,4′-piperidin]-3′-yl]-3′-methyl-2-biphenylyl}ethyl)-2-hydroxyacetamide], the IC50 in test [1] was 0.82 nM; in test [2] it was 0.66 nM.

With `CC(=O)NCCc1ccccc1-c1onc([C@H]2CNCC[C@@]23OCc2cc(F)c(F)cc23)c1Br` [Example 13, N-[2-(2-(4-Bromo-3-[(1R,3′R)-5,6-difluoro-3H-spiro[2-benzofuran-1,4′-piperidin]-3′-yl]-5-isoxazolyl)phenyl)ethyl]acetamide], the IC50 was 1 nM in test [1] and 0.26 nM in test [2].
